For six molecules, IC50 results are on record in patent US5414000A, “Antiviral pyrinyl substituted tetrahydropyrans” (Bristol-Myers Squibb Co., priority 1994, dated 1995).

Common to all, as to assay type: cell-based
Experiment [1] has as its system HSV-2 (herpes simplex virus type 2, strain 186). Put plainly: HSV-2 antiviral plaque reduction assay in WI-38 cell culture. The following applies: Human alphaherpesvirus 2, 96 h; HSV-2 strain 186; WI-38 monolayers; at least 50% plaque reduction vs virus controls; 4 days at 37° C.; read-out: ID50 HSV-2. The procedure: (§1) Assays were performed in cell culture systems to determine the concentrations of compounds that are effective in preventing several kinds of viral infections. Abbreviations:
(§2) HSV-1 (herpes simplex virus type 1, strain Schooler), HSV-2 (herpes simplex virus type 2, strain 186), VZV (varicella zoster virus, strain ELLEN), HCMC (human cytomegalovirus, strain AD 169). Cell Culture Assays:
(§3) HSV-1, HSV-2, HCMV and VZV antiviral assays: Virus was adsorbed to WI-38 cell culture monolayers in 5 well culture plates (Costar, Cambridge, Mass.) for 1 hour prior to addition of maintenance medium containing duplicate dilutions of the test compound. Inhibition of plaque development was evaluated on fixed and stained monolayers after 4 days incubation at 37° C. for HSV-1 and HSV-2, and after 5-7 days incubation at 37° C. for HCMV and VZV. ID50 values were determined from the drug concentration which conferred at least a 50% plaque reduction compared to virus controls.

Experiment [2] relates to VZV (varicella zoster virus, strain ELLEN). Put plainly: VZV antiviral plaque reduction assay in WI-38 cell culture. The conditions noted are these: Human alphaherpesvirus 3, WI-38 monolayers, at least 50% plaque reduction vs virus controls, 5-7 days at 37° C., read-out: ID50 VZV. How it is done: as §1, §2, §3
Experiment [3] relates to HSV-1 (herpes simplex virus type 1, strain Schooler). The experiment can be described thus: HSV-1 antiviral plaque reduction assay in WI-38 cell culture. The conditions noted are these: Human alphaherpesvirus 1, 96 h; HSV-1 strain Schooler; WI-38 monolayers; at least 50% plaque reduction vs virus controls; 4 days at 37° C.; read-out: ID50 HSV-1. The procedure:
as §1, §2, §3

In experiment [4] the test system is HCMV (human cytomegalovirus, strain AD 169). Put plainly: HCMV antiviral plaque reduction assay in WI-38 cell culture. The conditions noted are these: Human betaherpesvirus 5; HCMV strain AD 169; WI-38 monolayers; at least 50% plaque reduction vs virus controls; 5-7 days at 37° C.; read-out: ID50 HCMV. How it is done:
as §1, §2, §3

pIC50: −log10 of the molar value.

For the molecule `Nc1nc2c(ncn2[C@@H]2CO[C@H](CO)[C@@H](O)C2)c(=O)[nH]1` [Example 1, [3S-(3α, 5β, 6α)]-2-Amino-1,9-dihydro-9-[tetrahydro-5-hydroxy-6-(hydroxymethyl)-2H-pyran-3-yl]-6H-purin-6-one], the pIC50 in experiment [1] is 4.74; in experiment [2] it was 4.44 to 4.74; in experiment [3], 4.74; in experiment [4] it was 4.44 to 4.74.

In the case of `Nc1ncnc2c1ncn2[C@@H]1CO[C@H](CO)[C@@H](O)C1` [Example 2, [2R-(2α, 3β, 5α)]-5-(6-Amino-9H-purin-9yl)tetrahydro-3-hydroxy-2H-pyran-2-methanol], the pIC50 in experiment [1] is 4.72 to 5.10; in experiment [2], 4.42; in experiment [3] it was 4.72 to 5.10; in experiment [4] it was 4.42 to 5.40.

With `Nc1ccn([C@@H]2CO[C@H](CO)[C@@H](O)C2)c(=O)n1` [Example 3, [3S-(3α, 5β, 6α)]-4-Amino-1-[tetrahydro-5-hydroxy-6-(hydroxymethyl) -2H-pyran-3-yl]-2-(1H) -pyrimidinone], the pIC50 in experiment [1] is 6.10 to 6.40; in experiment [2], 5.10 to 5.40; in experiment [3], 6.10 to 6.40; in experiment [4] it was 5.70.

For `O=c1[nH]c(=O)n([C@@H]2CO[C@H](CO)[C@@H](O)C2)cc1I` [Example 4, [3S-(3α, 5β, 6α)]-5-Iodo-1-[tetrahydro-5-hydroxy-6-(hydroxymethyl) -2H-pyran-3-yl]-2,4 (1H, 3H) -pyrimidinedione], the pIC50 in experiment [1] is 5.27 to 5.52; in experiment [2], 3.57 to 4.17; in experiment [3] it was 5.85 to 6.52; in experiment [4], under 3.57.

As for `Cc1cn([C@@H]2CO[C@H](CO)[C@@H](O)C2)c(=O)[nH]c1=O` [Example 5, [3S-(3α, 5β, 6α)]-5-Methyl-1-[tetrahydro-5-hydroxy-6-(hydroxymethyl)-2H-pyran-3-yl]-2,4 (1H, 3H)-pyrimidinedione], the pIC50 in experiment [1] is under 3.41; in experiment [2], 3.41 to 4.41; in experiment [3], 3.41; in experiment [4] it was at most 3.41.

In the case of `O=c1[nH]c(=O)n([C@@H]2CO[C@H](CO)[C@@H](O)C2)cc1/C=C/Br` [Example 6], the pIC50 in experiment [1] was under 3.54; in experiment [2], 4.84 to 5.24; in experiment [3], 4.14 to 4.54; in experiment [4], under 3.54.
